Test results published in PMC7821884, “BRAF inhibition protects against hearing loss in mice” (Science Advances, 2020).

Legend:
[1] = system: Tg(brn3c:GFP) zebrafish larvae neuromast HCs; test: Zebrafish lateral line neuromast hair cell loss after cisplatin; format: in vivo; conditions: 1 hour pretreatment, 6 hours 400 μM cisplatin; dabrafenib 100 nM
Source text: Lateral line neuromasts of zebrafish are a well-established model for the study of drug protection from cisplatin or aminoglycoside toxicity because their HCs are considered homologous to mammalian HCs and readily accessible to compounds in vivo ([47]–[49]). As in our previous studies, MI1 (medial neuromast 1) and O1-2 (otic line) neuromasts were examined in Tg(brn3c:GFP) zebrafish larvae 5 days after fertilization ([50], [51]). […] Green fluorescent protein (GFP) (brn3c) and otoferlin staining were used to identify neuromast HCs. In fig.
Zebrafish (D. rerio) experimental larvae of either sex were obtained by pair mating of adult fish maintained at Boys Town National Research Hospital. We used zebrafish line Tg(brn3c:GFP) that expresses a membrane-bound GFP in HCs. Fish were maintained at 28.5°C in E3 media [5 mM NaCl, 0.17 mM KCl, 0.33 mM CaCl2, and 0.33 MgSO4 (pH 7.2)] at a density of 50 embryos/larvae per […] petri dish. Experimental animals were used at 5 days post-fertilization and cryo-anesthetized after treatment and before fixation. Average HC counts in our studies were obtained from the following three neuromasts: MI1 (medial neuromast 1) and O1 and O2 (otic line).

[2] = system: P42 FVB mice; test: Cisplatin-induced hearing loss in adult mice (ABR, OHC counts, pERK); conditions: 75 mg/kg oral gavage, cisplatin 30 mg/kg i.p.
Method: As described in Fig. 4A, baseline auditory brainstem response (ABR) thresholds for P42 FVB mice were established 1 week before experimental procedures. […] Animals were allowed 21 days after cisplatin injection to recover, and final ABR thresholds were recorded.
Ten milligrams of cisplatin (479306, Sigma-Aldrich) powder was dissolved in 10 ml of sterile saline (0.9% NaCl) at 37°C for 40 to 60 min. Cisplatin was administered to FVB mice at 30 mg/kg via intraperitoneal injection. One day before cisplatin injection, mice received 1 ml of saline by subcutaneous injection. To ameliorate dehydration after cisplatin injection, 1 ml of warm saline was injected twice per day for at least 7 days or until body weight started to recover. The cages of cisplatin-treated mice were placed on the heating pad for at least 7 days or until body weight began to recover. Fresh mush food was daily given for at least 7 days.
(§1) Compounds were dissolved in a mixture of 10% DMSO, 5% Tween 80 (P1754, Sigma-Aldrich), 40% PEG-E-300 (91462-1KG, Sigma-Aldrich), and 45% 0.9% saline.
(§2) ABR in mice was measured for left ears as described previously with minor modifications ([13], [34]). In brief, ABR waveforms were recorded in a sound booth (Industrial Acoustic Company) by using subdermal needles positioned in the skull, below the pinna, and at the base of the tail, and the responses were fed into a low-impedance Medusa digital biological amplifier system (RA4L; TDT; 20-dB gain). At each frequency, the stimulus intensity was reduced from 90 to 0 dB in 10-dB steps to determine the threshold decibel SPL when the electrical response was just above the noise floor. ABR waveforms were averaged in response to 500 tone bursts. The recorded signals were filtered by a band-pass filter from 300 Hz to 3 kHz. Pretreatment ABR recordings of adult FVB mice (aged 6 weeks) were acquired 1 week before all treatments, and posttreatment ABR measurements were recorded 21 days after cisplatin treatment or 14 days after noise exposure. ABR threshold was determined by the presence of any of three or more of the five waveform peaks. […] All thresholds and shifts were determined independently by two experimenters for each mouse. Individual ABR wave 1 amplitudes were measured as the difference between the positive peak and the following negative trough.
Cochleae from adult mice were prepared and examined as described previously ([85], [86]). All images were acquired with a confocal microscope (LSM 700 or 710, Zeiss). Samples were stained with phalloidin (A12379 or A12380, Invitrogen) or with antibodies for other markers. The following primary antibodies were used: anti–myosin VI (1:400; 25-6791; Proteus Bioscience), anti–myosin VIIa ([…];138-1-s, Developmental Studies Hybridoma Bank), anti-Tuj1 (1:250; 801201, BioLegend), anti-pERK (1:400; 9101S, Cell Signaling Technology), or anti-Ctbp2 (1:500; 612044, BD Transduction). Anti-rabbit Alexa Fluor 488 (1:400; A11034) and anti-mouse Alexa Fluor 647 (1:400; A31571) secondary antibodies were purchased from Invitrogen. ProLong gold antifade reagent with 4′,6-diamidino-2-phenylindole (P36941, Invitrogen) was used to counterstain nuclei.

[3] = system: human neuroblastoma and lung carcinoma cell lines; test: Tumor Cell Titer-Glo viability assay, interference with cisplatin tumor killing (six cell lines); format: cell-based; conditions: compound at 3× protective IC50 (dabrafenib 35 μM, AZD5438 […]) + 15 μM cisplatin (200 μM for A549), 48 hours
Source text: (§3) In clinical settings, cisplatin is used to treat several tumor types, including neuroblastoma and lung carcinoma. […] Medium-alone–, cisplatin-alone–, and dabrafenib-alone–treated cells were used as controls, and viability was reported as percent survival compared to medium alone (Fig. 4E).
(§4) Three human neuroblastoma cell lines IMR-32, SH-SY5Y, and, SK-N-AS, as well as three human lung carcinoma cell lines SHP-77 small cell, H1155 non–small cell, and A549 non–small cell, were used to determine the compounds’ effect on cisplatin’s tumor-killing efficacy ([77]–[83]). Cell lines were purchased from the American Type Culture Collection (ATCC), and cell culture was conducted according to ATCC specifications. Neuroblastoma cell lines IMR-32 and SH-SY5Y are maintained in Dulbecco’s modified Eagle’s medium (DMEM) 1× with glucose (4.5 g/liter), L-glutamine, and sodium pyruvate (10-013-CV, Corning) with 10% fetal bovine serum (FBS) (35011132, Corning) and ampicillin (50 μg/ml; A5354-10ML, Sigma-Aldrich) added. The SK-N-AS cell line is maintained in DMEM 1× with D-glucose (4.5 g/liter), L-glutamine, and 25 mM Hepes (12430-054, Gibco) with 10% FBS, 0.1 mM nonessential amino acids, and ampicillin (50 μg/ml) added. A549 cells are maintained in F-12K medium with L-glutamine (30-2004, ATCC) with 10% FBS and ampicillin (50 μg/ml) added. […]

[4] = system: SK-N-AS; test: Tumor Cell Titer-Glo viability assay, SK-N-AS; format: cell-based, human; conditions: SKN-AS, + 15 μM cisplatin, 48 hours
Source text: as §3, §4

[5] = system: P42 FVB mice; test: Noise-induced hearing loss in adult mice (ABR, DPOAE, Ctbp2 puncta, pERK); format: in vivo, mouse
Method: Noise injury cannot always be predicted, and pretreatment is often not an option.
as §1, §2
Mice were placed in individual cages in a custom-made acrylic chamber. The sound stimulus was produced by System RZ6 (TDT) equipment and amplified using a 75-A power amplifier (Crown). Sound was delivered to the acrylic chamber via a speaker horn (JBL). The SPL was calibrated with a 1/4-inch free-field microphone (PCB). Before experimental noise exposure, four quadrants of the cage inside the chamber were sampled with the 1/4-inch microphone to ensure that the SPL varied by <0.5 dB across the measured positions. Adult mice were then exposed to 2 hours of octave band noise (8 to 16 kHz) at 100 dB.
Organs of Corti were costained with anti-Ctbp2 and anti–myosin VI antibodies. Confocal imaging was performed using a Zeiss 700 scanning confocal microscope with a 63× objective. Visualization and projections were performed using ZEN 2009 or ZEN 2012 software (Zeiss). Ctbp2 puncta were visualized and counted on the reconstructed three-dimensional images by using the ZEN 2009 or ZEN 2012 three-dimensional construct function as previously reported ([54]). […] Images were acquired around 16-kHz cochlear regions, and each image included 12 to 18 IHCs that were quantified as total number of Ctbp2 puncta divided by total number of IHCs per image.

## Cc1ncc(-c2ccnc(Nc3ccc(S(C)(=O)=O)cc3)n2)n1C(C)C [AZD5438]
[1]
  protection from cisplatin-induced neuromast HC loss: confer protection
[2]
  protection against cisplatin-induced hearing loss, pretreatment: protected
[3]
  effect on cisplatin-induced tumor cell death: did not interfere with or enhanced
[4]
  interference with cisplatin killing ability: interfered with cisplatin killing ability
[5]; 35 mg/kg twice daily oral gavage, post-noise
  reduction of ABR threshold shifts, treatment after noise: did not significantly reduce
[5]; 75 mg/kg oral gavage pretreatment
  protection against noise-induced hearing loss, pretreatment: protected
